Reference: US20250011368A1, “DLL3 TARGETING PEPTIDES AND CONSTRUCTS THEREOF” (MARIANA ONCOLOGY INC., priority 2023, published 2025)
Numbered stars: 1 amine (or outer) side, 2 acyl side, 3 side chain; on linkers, the order of the positions; unused ones are H or OH. Bridge positions count the residues as written; N and C are the ends. Square brackets hold non-standard residues; d marks the D form. Peptide text beside a SMILES is read from it. * marks the point of attachment. DOTA = O=C(O)CN1CCN(CC(=O)O)CCN(CC(=O)*)CCN(CC(=O)O)CC1; Phe(4-CF3) = N[C@@H](Cc1ccc(C(F)(F)F)cc1)C(=O)O; Trp(5-F) = N[C@@H](Cc1c[nH]c2ccc(F)cc12)C(=O)O; Phe(2-CF3) = N[C@@H](Cc1ccccc1C(F)(F)F)C(=O)O; Trp(7-aza) = N[C@@H](Cc1c[nH]c2ncccc12)C(=O)O; X5 = O=C([C@H](CC1C=NC2N=CC=CC12)N[*:1])[*:2]; Pro(trans-4-F) = O=C(O)[C@@H]1C[C@@H](F)CN1; Gly(4-THP) = N[C@H](C(=O)O)C1CCOCC1; Chg = N[C@H](C(=O)O)C1CCCCC1; Tle = CC(C)(C)[C@H](N)C(=O)O; Aze = O=C(O)[C@@H]1CCN1

target: T1, human DLL3 (Homo sapiens, UniProt Q9NYJ7); assay: Affinity determination by Surface Plasmon Resonance (SPR); assay type: binding; details: 25° C., biotinylated human DLL3 immobilized on streptavidin sensor chip, 1:1 binding model; read-out: SPR KD
T1 sequence (Q9NYJ7 27-618): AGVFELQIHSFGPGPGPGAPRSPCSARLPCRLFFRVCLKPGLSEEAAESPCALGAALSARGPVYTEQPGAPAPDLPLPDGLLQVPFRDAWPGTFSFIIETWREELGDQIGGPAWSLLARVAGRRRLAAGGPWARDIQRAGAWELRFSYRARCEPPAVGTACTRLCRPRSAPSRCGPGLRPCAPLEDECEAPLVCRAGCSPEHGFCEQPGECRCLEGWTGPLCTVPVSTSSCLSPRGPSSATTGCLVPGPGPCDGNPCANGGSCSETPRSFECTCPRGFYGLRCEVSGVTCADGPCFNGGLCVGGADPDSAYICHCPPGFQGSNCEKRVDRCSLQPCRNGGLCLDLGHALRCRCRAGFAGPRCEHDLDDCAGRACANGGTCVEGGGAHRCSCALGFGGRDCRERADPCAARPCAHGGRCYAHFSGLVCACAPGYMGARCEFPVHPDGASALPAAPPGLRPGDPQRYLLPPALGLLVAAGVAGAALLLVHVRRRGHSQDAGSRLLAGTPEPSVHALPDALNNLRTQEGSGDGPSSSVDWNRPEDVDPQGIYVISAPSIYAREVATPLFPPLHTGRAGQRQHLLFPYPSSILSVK
Summary of the method: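 Kinetic and affinity constants were derived by fitting sensorgrams to a 1:1 binding model. Graded compound concentrations flowed at 100 μL/minute in 20 mM phosphate running buffer with 2% DMSO over streptavidin-immobilized biotinylated human DLL3, reference-subtracted.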

Kd, 1 to 10 nM:
CC(=O)N[C@@H](Cc1c[nH]c2ccc(F)cc12)C(=O)N[C@H](C(=O)N[C@H](C(=O)N[C@H]1CSSC[C@@H](C(=O)N[C@@H](Cc2c[nH]c3ncccc23)C(=O)N2CC[C@H]2C(=O)N[C@H](CCCCNC(=O)CN2CCN(CC(=O)O)CCN(CC(=O)O)CCN(CC(=O)O)CC2)C(N)=O)NC(=O)[C@H](CC(=O)O)NC(=O)[C@H](Cc2cnc[nH]2)NC(=O)[C@H](Cc2ccc(C(F)(F)F)cc2)NC(=O)[C@H](CC(N)=O)NC(=O)[C@H](CC(N)=O)NC1=O)C1CCCCC1)[C@@H](C)O [compound 143, Ac-(5Fluoro-W)-T-(Chg)-C(3)-N-N-(4CF3-F)-H-D-C(3)-(7Aza-W)-(Aze)-[D-Lys(DOTA)]-NH2] (Ac-[Trp(5-F)]T[Chg]CNN[Phe(4-CF3)]HDC[Trp(7-aza)][Aze][dK](DOTA)-NH2; disulfide 4-10)
CC(=O)N[C@@H](Cc1c[nH]c2ccc(F)cc12)C(=O)N[C@H](C(=O)N[C@@H](Cc1ccccc1C(F)(F)F)C(=O)N[C@H]1CSSC[C@@H](C(=O)N[C@@H](Cc2c[nH]c3ncccc23)C(=O)N2CC[C@H]2C(=O)N[C@H](CCCCNC(=O)CN2CCN(CC(=O)O)CCN(CC(=O)O)CCN(CC(=O)O)CC2)C(N)=O)NC(=O)[C@H](CC(=O)O)NC(=O)[C@H](Cc2cnc[nH]2)NC(=O)[C@H](Cc2ccc(C(F)(F)F)cc2)NC(=O)[C@H](CC(N)=O)NC(=O)[C@H](CC(N)=O)NC1=O)[C@@H](C)O [compound 144, Ac-(5Fluoro-W)-T-(2CF3-F)-C(3)-N-N-(4CF3-F)-H-D-C(3)-(7Aza-W)-(Aze)-[D-Lys(DOTA)]-NH2] (Ac-[Trp(5-F)]T[Phe(2-CF3)]CNN[Phe(4-CF3)]HDC[Trp(7-aza)][Aze][dK](DOTA)-NH2; disulfide 4-10)
CC(=O)N[C@@H](Cc1c[nH]c2ccc(F)cc12)C(=O)N[C@H](C(=O)N[C@H](C(=O)N[C@H]1CSSC[C@@H](C(=O)N[C@@H](CC2C=NC3N=CC=CC23)C(=O)N2C[C@H](F)C[C@H]2C(=O)N[C@H](CCCCNC(=O)CN2CCN(CC(=O)O)CCN(CC(=O)O)CCN(CC(=O)O)CC2)C(N)=O)NC(=O)[C@H](CC(=O)O)NC(=O)[C@H](Cc2cnc[nH]2)NC(=O)[C@H](Cc2ccc(C(F)(F)F)cc2)NC(=O)[C@H](CC(N)=O)NC(=O)[C@H](CC(N)=O)NC1=O)C(C)(C)C)[C@@H](C)O (stereo partly drawn) [compound 145, Ac-(5Fluoro-W)-T-(Tbg)-C(3)-N-N-(4CF3-F)-H-D-C(3)-(7Aza-W)-(trans4Fluoro-P)-[D-Lys(DOTA)]-NH2] (Ac-[Trp(5-F)]T[Tle]CNN[Phe(4-CF3)]HDC[X5][Pro(trans-4-F)][dK](DOTA)-NH2; disulfide 4-10)
CC(=O)N[C@@H](Cc1c[nH]c2ccc(F)cc12)C(=O)N[C@H](C(=O)N[C@H](C(=O)N[C@H]1CSSC[C@@H](C(=O)N[C@@H](Cc2c[nH]c3ncccc23)C(=O)N2C[C@H](F)C[C@H]2C(=O)N[C@H](CCCCNC(=O)CN2CCN(CC(=O)O)CCN(CC(=O)O)CCN(CC(=O)O)CC2)C(N)=O)NC(=O)[C@H](CC(=O)O)NC(=O)[C@H](Cc2cnc[nH]2)NC(=O)[C@H](Cc2ccc(C(F)(F)F)cc2)NC(=O)[C@H](CC(N)=O)NC(=O)[C@H](CC(N)=O)NC1=O)C1CCOCC1)[C@@H](C)O [compound 147, Ac-(5Fluoro-W)-T-(THPG)-C(3)-N-N-(4CF3-F)-H-D-C(3)-(7Aza-W)-(trans4Fluoro-P)-[D-Lys(DOTA)]-NH2] (Ac-[Trp(5-F)]T[Gly(4-THP)]CNN[Phe(4-CF3)]HDC[Trp(7-aza)][Pro(trans-4-F)][dK](DOTA)-NH2; disulfide 4-10)
